Usually inhibition stands for how much of the control response was suppressed. Usually IC50 stands for the concentration that gives 50% inhibition.

Test [1] addresses Serine/threonine-protein kinase PLK1 (Homo sapiens) (UniProt P53350). The experiment in a line: Inhibition of Plk1 at 10 uM by HTRF assay. A general note: Time-resolved FRET reads energy transfer from a long-lived donor to a nearby acceptor.
The target of test [2] is T1, Vascular endothelial growth factor receptor 2 (Homo sapiens, UniProt P35968). The experiment in a line: Inhibition of VEGFR2 assessed as blockade of pGAT-biotin phosphorylation in presence of 2 uM ATP by HTRF assay.
In test [3] the target is Vascular endothelial growth factor receptor 1 (Homo sapiens, UniProt P17948). The test is described as follows: Inhibition of VEGFR1 assessed as blockade of pGAT-biotin phosphorylation in presence of 2 uM ATP by HTRF assay.
Chain of Vascular endothelial growth factor receptor 1 (P17948 whole entry): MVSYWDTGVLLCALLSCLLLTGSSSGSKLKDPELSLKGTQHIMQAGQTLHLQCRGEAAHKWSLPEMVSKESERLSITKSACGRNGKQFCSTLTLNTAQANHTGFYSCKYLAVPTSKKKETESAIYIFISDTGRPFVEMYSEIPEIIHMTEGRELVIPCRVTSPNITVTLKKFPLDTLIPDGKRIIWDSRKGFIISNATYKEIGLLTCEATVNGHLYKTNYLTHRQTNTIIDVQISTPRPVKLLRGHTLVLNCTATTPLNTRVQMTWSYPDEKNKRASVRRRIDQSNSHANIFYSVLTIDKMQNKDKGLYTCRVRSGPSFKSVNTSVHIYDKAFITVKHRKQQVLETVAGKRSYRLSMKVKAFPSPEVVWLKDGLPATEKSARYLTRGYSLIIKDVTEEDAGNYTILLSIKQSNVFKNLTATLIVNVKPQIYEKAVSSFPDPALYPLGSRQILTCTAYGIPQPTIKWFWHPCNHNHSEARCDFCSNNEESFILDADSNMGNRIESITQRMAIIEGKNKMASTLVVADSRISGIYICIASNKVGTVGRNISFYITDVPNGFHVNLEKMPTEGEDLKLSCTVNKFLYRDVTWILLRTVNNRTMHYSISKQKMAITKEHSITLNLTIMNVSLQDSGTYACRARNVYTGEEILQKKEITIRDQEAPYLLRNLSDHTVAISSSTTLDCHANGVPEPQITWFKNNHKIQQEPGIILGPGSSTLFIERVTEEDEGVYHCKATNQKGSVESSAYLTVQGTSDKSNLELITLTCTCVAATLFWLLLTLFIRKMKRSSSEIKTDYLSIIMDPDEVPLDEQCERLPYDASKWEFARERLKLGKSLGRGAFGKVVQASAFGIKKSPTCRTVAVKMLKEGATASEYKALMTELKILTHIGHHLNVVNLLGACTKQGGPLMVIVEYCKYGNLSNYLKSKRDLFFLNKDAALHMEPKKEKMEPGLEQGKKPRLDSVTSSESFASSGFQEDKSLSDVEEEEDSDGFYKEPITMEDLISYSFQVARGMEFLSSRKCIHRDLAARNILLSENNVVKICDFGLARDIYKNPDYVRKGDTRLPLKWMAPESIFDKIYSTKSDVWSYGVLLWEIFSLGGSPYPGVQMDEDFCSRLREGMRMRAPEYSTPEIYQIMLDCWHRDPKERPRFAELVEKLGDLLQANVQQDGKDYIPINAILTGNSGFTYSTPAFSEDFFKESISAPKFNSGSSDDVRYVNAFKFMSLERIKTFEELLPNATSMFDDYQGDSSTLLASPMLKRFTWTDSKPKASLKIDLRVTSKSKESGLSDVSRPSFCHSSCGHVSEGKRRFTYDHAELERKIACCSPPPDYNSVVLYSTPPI
Test [4] has as its target T1, Vascular endothelial growth factor receptor 2. The experiment in a line: Inhibition of VEGFR2 expressed in HEK293 cells assessed as inhibition of receptor phosphorylation by ELISA. The class given is cell-based. On the technique in general: In an ELISA, binding on a coated surface is turned into a signal by an enzyme label.
Test [5] has as its target Insulin-like growth factor 1 receptor (Homo sapiens) (UniProt P08069). The experiment in a line: Inhibition of IGF1R at 10 uM by HTRF assay.
In test [6] the target is Insulin receptor (Homo sapiens) (UniProt P06213). The experiment in a line: Inhibition of InR at 10 uM by HTRF assay.
The target of test [7] is Fibroblast growth factor receptor 1 (Homo sapiens) (UniProt P11362). The experiment in a line: Inhibition of FGFR1 at 10 uM by HTRF assay.
Chain of Fibroblast growth factor receptor 1 (Homo sapiens) (P11362 22-822 limits assumed): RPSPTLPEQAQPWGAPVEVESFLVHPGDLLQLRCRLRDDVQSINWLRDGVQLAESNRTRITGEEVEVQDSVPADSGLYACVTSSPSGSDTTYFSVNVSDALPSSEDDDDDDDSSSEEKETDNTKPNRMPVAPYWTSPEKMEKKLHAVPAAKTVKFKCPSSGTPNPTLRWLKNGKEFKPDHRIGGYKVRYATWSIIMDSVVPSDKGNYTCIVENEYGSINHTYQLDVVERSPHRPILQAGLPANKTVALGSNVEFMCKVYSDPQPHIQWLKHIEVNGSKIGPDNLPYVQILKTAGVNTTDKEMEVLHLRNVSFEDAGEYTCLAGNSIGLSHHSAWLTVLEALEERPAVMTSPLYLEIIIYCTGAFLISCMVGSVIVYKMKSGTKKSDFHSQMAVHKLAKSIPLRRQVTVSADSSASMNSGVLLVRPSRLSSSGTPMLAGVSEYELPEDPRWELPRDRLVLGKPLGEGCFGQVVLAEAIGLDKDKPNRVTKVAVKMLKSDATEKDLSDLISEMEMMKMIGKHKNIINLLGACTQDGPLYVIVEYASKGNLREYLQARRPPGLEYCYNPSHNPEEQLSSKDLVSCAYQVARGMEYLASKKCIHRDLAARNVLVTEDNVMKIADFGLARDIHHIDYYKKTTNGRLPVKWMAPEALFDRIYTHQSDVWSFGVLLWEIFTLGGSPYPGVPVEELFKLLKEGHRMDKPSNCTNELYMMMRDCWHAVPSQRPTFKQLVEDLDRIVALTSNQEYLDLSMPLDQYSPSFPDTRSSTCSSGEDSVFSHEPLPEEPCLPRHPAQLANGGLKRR
The target of test [8] is Receptor-type tyrosine-protein kinase FLT3 (Homo sapiens) (UniProt P36888). The test is described as follows: Inhibition of Flt3 at 10 uM by HTRF assay.
The target of test [9] is Epidermal growth factor receptor (Homo sapiens) (UniProt P00533). The experiment in a line: Inhibition of EGFR at 10 uM by HTRF assay.
Test [10] deals with Receptor tyrosine-protein kinase erbB-2 (Homo sapiens) (UniProt P04626). The experiment in a line: Inhibition of ErbB2 at 10 uM by HTRF assay.
The target of test [11] is Hepatocyte growth factor receptor (Homo sapiens) (UniProt P08581). The test is described as follows: Inhibition of cMET at 10 uM by HTRF assay.
Test [12] deals with Macrophage-stimulating protein receptor (Homo sapiens) (UniProt Q04912). The experiment in a line: Inhibition of Ron at 10 uM by HTRF assay.
A short description of test [13]: Inhibition of PKA at 10 uM by HTRF assay.
Test [14] addresses Glycogen synthase kinase-3 beta (Homo sapiens) (UniProt P49841). The test is described as follows: Inhibition of GSK3-beta at 10 uM by HTRF assay.
The target of test [15] is Bcr/Abl fusion protein (Homo sapiens) (UniProt P00519+P11274). The test is described as follows: Inhibition of bcr-Abl at 10 uM by HTRF assay. The class given is protein assay.
Test [16] addresses Cyclin-dependent kinase 1 (Homo sapiens) (UniProt P06493). The experiment in a line: Inhibition of CDK1 at 10 uM by HTRF assay.
The target in test [17] is Cyclin-dependent kinase 2 (Homo sapiens) (UniProt P24941). The test is described as follows: Inhibition of CDK2 at 10 uM by HTRF assay.
The target of test [18] is Proto-oncogene tyrosine-protein kinase Src (Homo sapiens) (UniProt P12931). The test is described as follows: Inhibition of Src at 10 uM by HTRF assay.
Test [19] concerns the target T2, Aurora kinase A (Homo sapiens) (UniProt O14965).
T2 sequence (whole entry): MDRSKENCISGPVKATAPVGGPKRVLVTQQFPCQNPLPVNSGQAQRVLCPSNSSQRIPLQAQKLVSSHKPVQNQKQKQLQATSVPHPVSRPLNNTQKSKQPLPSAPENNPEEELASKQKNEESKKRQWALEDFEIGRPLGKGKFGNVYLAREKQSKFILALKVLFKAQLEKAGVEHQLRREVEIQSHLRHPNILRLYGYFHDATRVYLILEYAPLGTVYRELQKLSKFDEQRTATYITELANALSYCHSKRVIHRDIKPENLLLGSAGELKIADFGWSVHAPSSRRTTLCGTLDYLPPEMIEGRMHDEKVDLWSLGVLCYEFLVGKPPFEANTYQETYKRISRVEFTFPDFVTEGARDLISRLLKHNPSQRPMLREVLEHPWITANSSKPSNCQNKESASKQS
The experiment in a line: Inhibition of Aurora A at 10 uM by HTRF assay.

In test [20] the target is Aurora kinase B (Homo sapiens) (UniProt Q96GD4). The experiment in a line: Inhibition of Aurora B at 10 uM by HTRF assay.
Chain of Aurora kinase B (Homo sapiens) (Q96GD4 whole entry): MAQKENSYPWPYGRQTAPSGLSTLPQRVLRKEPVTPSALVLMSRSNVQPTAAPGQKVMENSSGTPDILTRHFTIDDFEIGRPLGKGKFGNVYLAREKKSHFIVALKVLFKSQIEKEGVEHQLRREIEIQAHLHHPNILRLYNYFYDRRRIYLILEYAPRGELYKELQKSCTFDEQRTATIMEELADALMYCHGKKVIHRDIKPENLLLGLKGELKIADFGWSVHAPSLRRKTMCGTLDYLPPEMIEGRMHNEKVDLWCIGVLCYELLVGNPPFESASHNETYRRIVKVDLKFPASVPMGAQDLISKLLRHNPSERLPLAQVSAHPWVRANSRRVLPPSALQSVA
Test [21] can be described thus: Inhibition of Bcr-Abl T315 mutant at 10 uM by HTRF assay.

Chain of Cyclin-dependent kinase 1 (Homo sapiens) (P06493 whole entry, looked up): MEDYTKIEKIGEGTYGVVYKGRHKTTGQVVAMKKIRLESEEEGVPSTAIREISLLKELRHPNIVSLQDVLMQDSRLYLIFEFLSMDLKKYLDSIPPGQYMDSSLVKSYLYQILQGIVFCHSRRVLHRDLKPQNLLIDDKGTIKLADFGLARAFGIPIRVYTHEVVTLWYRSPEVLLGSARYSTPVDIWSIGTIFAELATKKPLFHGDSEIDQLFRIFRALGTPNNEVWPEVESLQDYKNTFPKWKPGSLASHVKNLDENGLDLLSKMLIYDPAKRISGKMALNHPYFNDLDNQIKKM
Chain of Insulin-like growth factor 1 receptor (Homo sapiens) (P08069 31-736 limits assumed): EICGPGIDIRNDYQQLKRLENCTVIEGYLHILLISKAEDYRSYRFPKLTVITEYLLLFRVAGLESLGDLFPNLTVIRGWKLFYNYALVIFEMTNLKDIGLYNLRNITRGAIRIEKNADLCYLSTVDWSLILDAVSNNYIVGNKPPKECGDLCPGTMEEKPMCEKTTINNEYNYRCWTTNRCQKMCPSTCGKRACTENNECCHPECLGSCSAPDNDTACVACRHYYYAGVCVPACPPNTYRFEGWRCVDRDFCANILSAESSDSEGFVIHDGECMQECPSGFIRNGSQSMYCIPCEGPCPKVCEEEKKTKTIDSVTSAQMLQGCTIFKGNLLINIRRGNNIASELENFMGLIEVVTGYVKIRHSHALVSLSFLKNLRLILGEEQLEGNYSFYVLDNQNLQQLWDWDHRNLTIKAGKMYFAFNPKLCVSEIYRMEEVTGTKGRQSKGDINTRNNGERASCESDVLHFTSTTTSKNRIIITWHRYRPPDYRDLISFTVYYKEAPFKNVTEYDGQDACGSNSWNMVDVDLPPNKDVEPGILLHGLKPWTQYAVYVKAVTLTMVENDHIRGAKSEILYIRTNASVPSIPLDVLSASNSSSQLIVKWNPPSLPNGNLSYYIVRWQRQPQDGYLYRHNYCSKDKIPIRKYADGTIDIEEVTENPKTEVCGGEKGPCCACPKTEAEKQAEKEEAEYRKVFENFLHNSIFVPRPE
Chain of Insulin-like growth factor 1 receptor (Homo sapiens) (P08069 741-1367 limits assumed): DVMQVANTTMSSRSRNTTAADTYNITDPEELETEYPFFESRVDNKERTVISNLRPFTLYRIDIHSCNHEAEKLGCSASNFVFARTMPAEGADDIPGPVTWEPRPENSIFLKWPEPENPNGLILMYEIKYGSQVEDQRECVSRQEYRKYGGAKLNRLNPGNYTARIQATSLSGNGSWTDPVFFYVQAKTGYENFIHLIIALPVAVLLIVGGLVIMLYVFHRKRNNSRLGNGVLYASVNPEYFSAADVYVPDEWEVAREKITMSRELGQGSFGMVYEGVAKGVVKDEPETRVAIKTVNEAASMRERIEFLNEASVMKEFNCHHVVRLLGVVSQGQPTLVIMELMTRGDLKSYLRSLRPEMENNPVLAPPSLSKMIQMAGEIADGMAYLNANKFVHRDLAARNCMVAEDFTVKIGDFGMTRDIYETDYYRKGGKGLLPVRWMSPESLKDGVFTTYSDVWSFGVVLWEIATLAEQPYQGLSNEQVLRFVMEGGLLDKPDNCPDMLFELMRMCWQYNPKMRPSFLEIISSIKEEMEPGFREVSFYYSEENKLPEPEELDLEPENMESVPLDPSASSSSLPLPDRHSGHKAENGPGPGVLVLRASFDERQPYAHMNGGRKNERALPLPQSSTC
Chain of Serine/threonine-protein kinase PLK1 (Homo sapiens) (P53350 whole entry): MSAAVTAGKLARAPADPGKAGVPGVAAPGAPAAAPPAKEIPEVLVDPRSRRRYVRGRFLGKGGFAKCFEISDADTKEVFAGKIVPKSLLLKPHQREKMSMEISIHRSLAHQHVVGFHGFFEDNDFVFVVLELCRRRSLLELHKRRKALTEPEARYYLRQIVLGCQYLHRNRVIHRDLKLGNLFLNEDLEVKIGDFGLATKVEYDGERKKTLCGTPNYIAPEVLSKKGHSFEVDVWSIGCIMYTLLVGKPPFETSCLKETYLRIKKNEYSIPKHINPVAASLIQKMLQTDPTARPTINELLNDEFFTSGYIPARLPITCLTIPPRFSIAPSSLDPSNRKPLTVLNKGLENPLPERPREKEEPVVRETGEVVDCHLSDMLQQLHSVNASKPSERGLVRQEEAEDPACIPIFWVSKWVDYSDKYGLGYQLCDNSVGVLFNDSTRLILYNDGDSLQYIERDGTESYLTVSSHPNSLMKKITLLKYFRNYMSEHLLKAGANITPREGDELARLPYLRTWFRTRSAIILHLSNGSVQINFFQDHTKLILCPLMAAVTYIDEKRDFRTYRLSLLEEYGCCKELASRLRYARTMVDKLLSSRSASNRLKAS

As for `O=C(Nc1cccc(C(F)(F)F)c1)c1nscc1NCCc1ccc2c(c1)OCO2`, the inhibition in [1], in [5], in test [6], in test [7], in test [8] and in test [9] was less than 30% in each case. Moreover, the inhibition in test [10], in test [11], in test [12], in test [13], in [14] and in [15] was less than 30% throughout. Further, the inhibition in test [16], in test [17], in [18], in test [19], in test [20] and in [21] was less than 30% in each case. The IC50 in test [2], in test [3] and in [4] was greater than 10000 nM throughout.

Consider `O=C(NCc1ccc2c(c1)OCO2)c1nscc1NCc1ccncc1`, for which the inhibition in [1], in [5], in [6], in test [7], in test [8] and in [9] was less than 30% throughout. In addition, the inhibition in [10], in test [11], in test [12], in [13], in test [14] and in test [15] was less than 30% in each case. Also, the inhibition in test [16], in [17], in [18], in [19], in test [20] and in test [21] was less than 30% each time. Moreover, the IC50 in [2] turned out to be 650 nM; in [3], 700 nM; in [4], 790 nM.

In the case of `O=C(Nc1ccc(Cl)c(Cl)c1)c1nscc1NCc1ccncc1`, the inhibition in [1], in test [5], in test [6], in test [7], in test [8] and in [9] was less than 30% in each case. The inhibition in [10], in test [11], in test [12], in [13], in test [14] and in test [15] was less than 30% in each case. Moreover, the inhibition in test [16], in [17], in test [18], in test [19], in test [20] and in [21] was less than 30% each time. The IC50 in [2] was found to be 670 nM; in test [3] it was 750 nM; in test [4] it was 1110 nM.

Turning to `O=C(Nc1cccc(Br)c1)c1nscc1NCc1ccc2ccccc2n1`, the inhibition in [1], in [5], in [6], in test [7], in [8] and in test [9] was less than 30% in each case. The inhibition in [10], in test [11], in test [12], in [13], in test [14] and in test [15] was less than 30% each time. The inhibition in test [16], in test [17], in test [18], in test [19], in test [20] and in test [21] was less than 30% each time. Moreover, the IC50 in test [2], in [3] and in test [4] was greater than 10000 nM in each case.

As to `O=C(Nc1cccc(Br)c1)c1nscc1NCc1ccncc1`, the inhibition in test [1], in [5], in [6], in [7], in test [8] and in [9] was less than 30% in each case. In addition, the inhibition in [10], in test [11], in [12], in [13], in test [14] and in test [15] was less than 30% each time. The inhibition in test [16], in test [17], in [18], in test [19], in test [20] and in [21] was less than 30% throughout. Also, the IC50 stood at 27 nM in test [2], 55 nM in [3] and 210 nM in test [4].

Consider `O=C(Nc1cccc(C(F)(F)F)c1)c1nscc1NCc1ccccn1`, for which the inhibition in test [1], in [5], in [6], in [7], in test [8] and in test [9] was less than 30% in each case. For the same molecule, the inhibition in test [10], in test [11], in [12], in [13], in test [14] and in test [15] was less than 30% throughout. Besides, the inhibition in test [16], in [17], in [18], in [19], in test [20] and in [21] was less than 30% throughout. The IC50 in test [2], in [3] and in test [4] was greater than 10000 nM in each case.

`O=C(Nc1cccc(Br)c1)c1nscc1NCCc1ccc2c(c1)OCO2`: the inhibition in test [1], in test [5], in [6], in test [7], in test [8] and in test [9] was less than 30% each time. Moreover, the inhibition in [10], in [11], in [12], in test [13], in test [14] and in [15] was less than 30% each time. For the same molecule, the inhibition in [16], in test [17], in test [18], in test [19], in test [20] and in test [21] was less than 30% in each case. Further, the IC50 in [2], in [3] and in [4] was greater than 10000 nM each time.

For `O=C(Nc1ccc(Cl)c(C(F)(F)F)c1)c1nscc1NCc1ccncc1`, the inhibition in [1], in [5], in test [6], in test [7], in [8] and in test [9] was less than 30% each time. Besides, the inhibition in [10], in test [11], in [12], in test [13], in test [14] and in test [15] was less than 30% each time. In addition, the inhibition in test [16], in test [17], in test [18], in test [19], in test [20] and in [21] was less than 30% throughout. For the same molecule, the concentration for half-maximal inhibition (IC50) was determined as 230 nM in test [2], 980 nM in test [3] and 530 nM in test [4].

The values are drawn from ChEMBL document CHEMBL1136839, “3,4-Disubstituted isothiazoles: novel potent inhibitors of VEGF receptors 1 and 2” (Bioorg Med Chem Lett, 2009).
